Tests used:
[1] = test system: anti-peptide IgG in plasma; test: Test Example 4: peptide-specific IgG titer pre and post vaccination, bead-based multiplexed Luminex assay; assay type: in vivo, human; conditions: for Pre-vaccination IgG Negative (number of patients) / Pre-vaccination IgG Positive (number of patients): cut off 10 FIU; for Post vaccination IgG: number of (positive) patients among vaccinated: positive IgG response; for Pre-vaccination IgG Negative patients: number of 2,588 patients below 10 FIU; for Pre-vaccination IgG Positive patients: number of 2,588 patients with ≥10 FIU; for Post vaccination IgG: (positive) patients: number of vaccinated patients with positive IgG response; for Correlation between immune responses and OS: Negative (mOS): patients with negative post-vaccination IgG response to the peptide; for Correlation between immune responses and OS: Positive (mOS): patients with positive post-vaccination IgG response to the peptide
How it was run: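 Plasma taken before vaccination and at the end of the first and second cycles; incubated with peptide-coupled beads 2 hours at 25° C., then biotinylated anti-human IgG (gamma chain-specific) and streptavidin-PE. Bead FIU read by Luminex; positivity cutoff 10 FIU in 100-fold diluted samples.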

cancer patients = test: Test Example 4: correlation between vaccination with individual peptides (or peptide sets) and OS, Cox proportional hazards regression; assay type: in vivo, human; conditions: for HR: Cox proportional hazards regression, OS; for Correlation between immune responses and OS: Negative (mOS) / Correlation between immune responses and OS: Positive (mOS): Table 20, <64% neutrophil and ≥26% lymphocyte; for Correlation between immune responses and OS: Negative (mOS): vaccinated patients with negative IgG response; for Correlation between immune responses and OS: Positive (mOS): vaccinated patients with positive IgG response
How it was run: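 Univariate and multivariate Cox proportional hazards regression of each of 31 vaccine peptides against OS (enrollment to death or last contact), giving HR with 95% CI; also run separately in 2,085 advanced (stage IV+recurrence) and 503 stage I-III patients. Two-sided p<0.05 considered significant.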

[2] = Table 20, patients showing both <64% neutrophil and ≥26% lymphocyte
[3] = patients showing detectable levels
[4] = patients showing positive responses
[5] = Table 18, all 2,588 cases, vaccinated vs non-vaccinated
[6] = Table 18, all 2,588 cases, median OS of patients under PPV containing the peptide
[7] = Table 18, all 2,588 cases, median OS of patients under PPV not containing the peptide
[8] = Table 19, 2,085 advanced cancer patients (stage IV+recurrence)
[9] = Table 19, 2,085 advanced cancer patients (stage IV+recurrence), PPV containing the peptide
[10] = Table 19, 2,085 advanced cancer patients (stage IV+recurrence), PPV not containing the peptide
[11] = Table 21, patients showing both <64% neutrophil and ≥26% lymphocyte
[12] = Table 21, patients showing both <64% neutrophil and ≥26% lymphocyte, PPV containing the peptide
[13] = Table 21, patients showing both <64% neutrophil and ≥26% lymphocyte, PPV not containing the peptide

Sequence	Post vaccination IgG Median (FIU) [1, 2]	Pre-vaccination IgG Median (FIU) [1, 2]	Pre-vaccination IgG Negative (number of patients) [1, 2]	Pre-vaccination IgG Positive (number of patients) [1, 2]	Post vaccination IgG: number of (positive) patients among vaccinated [1, 2]	Pre-vaccination IgG Negative patients [1]	Pre-vaccination IgG Positive patients [1]	Post vaccination IgG: (positive) patients [1]	Pre-vaccination IgG Median (FIU) [1, 3]	Post vaccination IgG Median (FIU) [1, 4]	Correlation between immune responses and OS: Negative (mOS) [1]	Correlation between immune responses and OS: Positive (mOS) [1]	HR (cancer patients; [5])	Vaccinate cases (mOS) (cancer patients; [6])	Non-vaccinate cases (mOS) (cancer patients; [7])	HR (cancer patients; [8])	Vaccinate cases (mOS) (cancer patients; [9])	Non-vaccinate cases (mOS) (cancer patients; [10])	Correlation between immune responses and OS: Negative (mOS) (cancer patients)	Correlation between immune responses and OS: Positive (mOS) (cancer patients)	also measured
VIQNLERGYR (listed as Homo sapiens) [Lck-449]	18,734 FIU	23 FIU	475	591	57(38)	1,182	1,406	127(67)	23 FIU	18,919 FIU	6.2 months	19.5 months	0.9	127(13.7) M	1,087(10.8) M	0.8	102(13.3) M	867(9.5) M	10 months	27.1 months	HR (cancer patients; [11]): 0.8; Vaccinate cases (mOS) (cancer patients; [12]): 57(18.1) M; Non-vaccinate cases (mOS) (cancer patients; [13]): 450(17.5) M
VYDYNCHVDL (listed as Homo sapiens) [SART3-109]	9,770 FIU	30 FIU	572	494	192(116)	1,382	1,206	474(223)	31 FIU	7,875 FIU	10.3 months	19.0 months	1.0	474(12.3) M	1,948(11.5) M	1.0	376(10.6) M	1566(10.2) M	17.1 months	24.1 months	HR (cancer patients; [11]): 1.0; Vaccinate cases (mOS) (cancer patients; [12]): 192(19.8) M; Non-vaccinate cases (mOS) (cancer patients; [13]): 796(18.0) M
WLEYYNLER (listed as Homo sapiens) [SART3-511]	1,095 FIU	38 FIU	264	802	179(82)	621	1,967	439(145)	41 FIU	921 FIU	10.8 months	22.6 months	1.0	439(11.0) M	775(11.2) M	1.0	346(9.9) M	623(10.0) M	17.1 months	29.2 months	HR (cancer patients; [11]): 0.9; Vaccinate cases (mOS) (cancer patients; [12]): 179(19.0) M; Non-vaccinate cases (mOS) (cancer patients; [13]): 328(17.5) M

From US20220233661A1, “METHOD OF DETERMINING ELIGIBILITY OF CANCER PATIENT FOR PEPTIDE VACCINE THERAPY” (priority 2019, published 2022)
